# Experimental data as given in patent US20100297046A1, “Compositions and Methods Related to Fructosamine-3-Kinase Inhibitors” (DYNAMIS THERAPEUTICS, INC., priority 2006, published 2010).
# Where “and” joins values, the source holds several entries; their conditions need not be identical. Equal values may be shown once.
# Key:
# 3-deoxyglucosone = assay: Reduction of urinary and plasma 3-deoxyglucosone in rats; format: in vivo, rat; settings: for Plasma 3-deoxyglucosone reduced / average reduction of urinary 3-deoxyglucosone: rats, 10 μmols intraperitoneal; for Plasma 3-deoxyglucosone reduced: plasma at end of three hours; for average reduction of urinary 3-deoxyglucosone: urine three hours after vs before, normalized to creatinine
# Method: Urine was collected from six rats for three hours. A plasma sample was also obtained. The animals were then given 10 μmols of either sorbitollysine, mannitollysine, or galactitollysine by intraperitoneal injection. Urine was collected for another three hours, and a plasma sample obtained at the end of the three hours.
# a. 3-deoxyglucosone was measured in the samples, as described in Example 5, below, and variable volumes were normalized to creatinine. The average reduction of urinary 3-deoxyglucosone was 50% by sorbitollysine, 35% by mannitollysine and 35% by galactitollysine. Plasma 3-deoxyglucosone was reduced 40% by sorbitollysine, 58% by mannitollysine and 50% by galactitollysine.
# Three rats were treated as in b), immediately above, except meglumine (100 μmols) was injected intraperitoneally instead of the above-mentioned lysine derivatives. Three hours after the injection the average 3-deoxyglucosone concentrations in the urine were decreased 42%.
# 3DG was measured by GC-MS after deionization of the sample. 3DG was derivatized with a 10-fold excess of diaminonaphthalene in PBS. Ethyl acetate extraction gave a salt free fraction which was converted to the trimethyl silyl ethers with Tri-Sil (Pierce). Analysis was performed on a Hewlett-Packard 5890 selected ion monitoring GC-MS system. GC was performed on a fused silica capillary column (DB-5.25 mx. […]) using the following temperature program: injector port 250° C., initial column temperature 150° C. which is held for 1 minute, then increased to 290° C. at 16° C./minute and held for 15 minutes. Quantitation of 3DG employed selected ion monitoring using an internal standard of U-13C-3DG.
# mouse mesangial cells = assay: Type IV collagen production in kidney cells in vitro; format: cell-based
# Method: Type IV collagen production was measured in mouse mesangial cells. Controls (grown with […]) produced 300 ng of Type IV collagen per 10,000 cells, whereas fructoselysine treated cells (5 or 10 mM fructoselysine with 10 mM glucose) produced 560 and 1100 ng/10,000 cells.
# [1] = set-up: species or system human; settings: in vivo
# Method: Volunteers spent two days on a fructoselysine-free diet and then consumed 22.5 g of the food product prepared as described herein, thus effectively receiving a 2 gram dose of fructoselysine. Urine was collected at 2 hour intervals for 14 hours and a final collection was made at 24 hours. FL was measured by HPLC with a Waters 996 diode Array using a Waters C18 Free Amino Acid column at 46° C. and a gradient elution system of acetonitrile-methyl alcohol-water (45:15:40) into acetonitrile-sodium acetate-water (6:2:92) at 1 ml/min. Quantitation employed an internal standard of meglumine. 3DF was measured by HPLC after deionization of the sample. Analyses were performed on a Dionex DX-500 HPLC system employing a PA1 column (Dionex) and eluting with 32 mM sodium hydroxide at 1 ml/min. Quantitation was performed from standard curves obtained daily with synthetic 3DF. 3DG was measured by GC-MS after deionization of the sample. 3DG was derivatized with a 10-fold excess of diaminonaphthalene in PBS. Ethyl acetate extraction gave a salt free fraction which was converted to the trimethyl silyl ethers with Tri-Sil (Pierce). Analysis was performed on a Hewlett-Packard 5890 selected ion monitoring GC-MS system. […] Quantitation of 3DG employed selected ion monitoring using an internal standard of U-13C-3DG.
# diabetic rats = assay: Muscle strength / resistance to pull in alert restrained diabetic rats; format: in vivo, rat; settings: diabetic rats treated vs not treated; preliminary data
# Description: The present invention also encompasses methods for prevention of hair loss associated with or mediated by loss of microcirculation and/or loss of neuro-innervation in populations of aging, sclerodermic and/or in diabetic individuals. This is because 3DG is a known precursor to the formation of AGEs which are known to be causally connected to the development of neuropathy. […] This supports the concept that maintenance of nerve conduction and microcirculation that supports nerve innervation is deleteriously affected not only by AGEs, but also 3DG. Similarly, where 3DG would cause blockage of the microcirculation that supports nerve innervation of the hair follicle, the hair follicle will atrophy and die, as is the case in neuropathy. Accordingly, the present invention includes methods for preventing hair loss, where such hair loss is associated with or mediated by the presence of 3DG in the skin proximal to a hair follicle/shaft.
# Skin elasticity measurements were also taken on the test subjects as described above, but without sedating the test animals before measurement. FIG. 15 illustrates skin elasticity measurements taken on the hind leg of the test subjects while the subjects were alert and being restrained by a technician.
# In these experiments, the animals were fiercely fighting restraint and the results are different.
# 3DG = assay: Plasma 3DG levels in diabetic and non-diabetic rats treated with 3-O-methyl sorbitollysine; format: in vivo, rat; settings: for plasma 3DG level: 50 mg/kg body weight injections, within one week
# Method: A cohort of twelve diabetic rats was divided into two groups of six. The first group received saline-only injections, and the second received injections of 3-O-methyl sorbitollysine (50 mg/kg body weight) in saline solution. The same procedure was conducted on a cohort of twelve non-diabetic rats.
# [2] = tested on: skin of STZ-diabetic rats; assay: Skin elasticity measurement (vacuum pull) in STZ-diabetic and normal rats; format: in vivo, rat; settings: 50 mg/kg daily subcutaneous, eight weeks
# Method: Experiments were performed to determine the effects of DYN 12 on the loss of skin elasticity associated with diabetes. To this end, two groups of STZ-diabetic rats and two groups of normal rats were subjected to treatment with DYN 12 or saline. One group of STZ-diabetic rats (n=9) received daily subcutaneous injections of DYN 12 at 50 mg/kg for eight weeks, as did one group of normal rats (n=6). A group of control diabetic rats (n=10) and a group of normal rats (n=6) received saline instead of DYN 12. One rat was removed from the diabetic DYN 12 group after 2 weeks because its blood glucose readings were inconsistent (too low) with other diabetic rats.
# A non-invasive procedure based on CyberDERM, Inc. technology utilizing a skin elasticity measurement device was used to test the effects of DYN 12 treatment on skin elasticity. The procedure provides for non-invasive measurement of skin elasticity based upon the amount of vacuum pull required to displace skin. A suction cup probe is adhered to an area of shaved skin in order to form an airtight seal. Then, a vacuum is applied to the area of the skin inside the suction cup until the skin is displaced past a sensor located inside the probe. Accordingly, the more pressure that is required to displace the skin, the less elastic the skin is.
# [3] = Locus of 3-O-methyl sorbitollysine uptake in vivo (recovery from tissues, urine, plasma); set-up: species or system rat
# Method: […] Urine was collected for 3 hours, after which the rats were sacrificed. The tissues to be analyzed were removed and freeze clamped in liquid nitrogen. Perchloric acid extracts of the tissues were used for metabolite analysis. The tissues examined were taken from the brain, heart, muscle, sciatic nerve, spleen, pancreas, liver, and kidney. Plasma was also analyzed.
# [4] = target: T1, Calf skin collagen Type I (Bos taurus, UniProt P02453+P02465); assay: Collagen crosslinking by 3DG in vitro (CNBr digestion, SDS-PAGE); format: biochemical; settings: 37° C., 24 hours
# T1 construct: Calf skin collagen Type I (1.3 mg; Sigma); purchased Sigma; host or cells: calf skin (tissue-derived)
# Method: Collagen type I was treated with 3DG in the presence or absence of arginine. The samples were subjected to cyanogen bromide (CNBr) digestion, electrophoresed on a 16.5% SDS Tris-tricine gel, and then the gels were processed using silver stain techniques to visualize the proteins. Lane 1 contains molecular weight marker standards. Lanes 2 and 5 contain 10 and 20 μl of the collagen mixture following CNBr digestion. Lanes 3 and 6 contain the collagen mixture treated with 3DG and then digested with CNBr, and loaded at 10 and 20 μl, respectively. Lanes 4 and 7 contain the mixture of collagen incubated with 5 mM 3DG and 10 mM arginine and then digested with CNBr, and loaded at 10 and 20 μl, respectively.
# Collagen I was incubated in the presence or absence of 3DG in vitro. Calf skin collagen Type I (1.3 mg; Sigma) was incubated in 20 mM Na-phosphate buffer, pH 7.25, either alone, with 5 mM 3DG, or with 5 mM 3DG plus 10 mM arginine, in a total volume of 1 ml at 37° C. for 24 hours and then frozen and lyophilized. The residue was dissolved in 0.5 ml of 70% formic acid and cyanogen bromide was added (20:1, w/w). This solution was incubated at 30° C. for 18 hours. […] The extent of collagen crosslinking was determined by applying equal volumes of sample and analyzing by SDS-PAGE electrophoresis (16.5% Tris-tricine gel), as determined by the effects of 3DG on the migration of collagen.
# T1 sequence (P02453 162-1217 limits assumed): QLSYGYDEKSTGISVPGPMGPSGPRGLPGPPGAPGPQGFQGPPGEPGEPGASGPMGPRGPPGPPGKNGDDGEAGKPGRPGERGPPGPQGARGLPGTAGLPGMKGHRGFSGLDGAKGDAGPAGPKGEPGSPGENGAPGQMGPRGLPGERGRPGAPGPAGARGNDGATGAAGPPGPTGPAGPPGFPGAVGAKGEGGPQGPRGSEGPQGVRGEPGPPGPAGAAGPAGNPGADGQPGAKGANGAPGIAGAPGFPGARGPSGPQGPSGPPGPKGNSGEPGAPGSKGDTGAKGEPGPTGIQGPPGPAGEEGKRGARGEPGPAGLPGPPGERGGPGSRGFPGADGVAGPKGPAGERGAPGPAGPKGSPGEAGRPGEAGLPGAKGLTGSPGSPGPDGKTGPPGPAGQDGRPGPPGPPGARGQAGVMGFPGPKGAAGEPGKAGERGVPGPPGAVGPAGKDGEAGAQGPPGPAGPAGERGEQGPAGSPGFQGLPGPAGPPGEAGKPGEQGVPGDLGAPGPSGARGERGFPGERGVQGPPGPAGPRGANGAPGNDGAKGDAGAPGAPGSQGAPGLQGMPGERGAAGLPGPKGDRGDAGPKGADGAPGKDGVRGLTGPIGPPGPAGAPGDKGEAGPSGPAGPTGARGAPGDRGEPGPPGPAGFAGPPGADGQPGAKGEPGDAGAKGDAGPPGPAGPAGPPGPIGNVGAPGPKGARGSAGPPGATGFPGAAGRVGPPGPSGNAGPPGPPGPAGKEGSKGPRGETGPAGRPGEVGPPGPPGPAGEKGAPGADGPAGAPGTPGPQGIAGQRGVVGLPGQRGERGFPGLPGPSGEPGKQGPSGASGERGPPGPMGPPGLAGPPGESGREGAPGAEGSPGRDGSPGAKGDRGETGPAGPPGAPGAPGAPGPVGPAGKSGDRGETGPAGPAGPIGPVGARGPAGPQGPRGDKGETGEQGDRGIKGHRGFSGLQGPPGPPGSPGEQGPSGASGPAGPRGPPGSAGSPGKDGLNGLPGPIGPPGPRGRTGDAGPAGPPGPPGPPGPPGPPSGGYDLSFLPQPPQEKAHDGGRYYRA
# T1 sequence (P02465 80-1117 limits assumed): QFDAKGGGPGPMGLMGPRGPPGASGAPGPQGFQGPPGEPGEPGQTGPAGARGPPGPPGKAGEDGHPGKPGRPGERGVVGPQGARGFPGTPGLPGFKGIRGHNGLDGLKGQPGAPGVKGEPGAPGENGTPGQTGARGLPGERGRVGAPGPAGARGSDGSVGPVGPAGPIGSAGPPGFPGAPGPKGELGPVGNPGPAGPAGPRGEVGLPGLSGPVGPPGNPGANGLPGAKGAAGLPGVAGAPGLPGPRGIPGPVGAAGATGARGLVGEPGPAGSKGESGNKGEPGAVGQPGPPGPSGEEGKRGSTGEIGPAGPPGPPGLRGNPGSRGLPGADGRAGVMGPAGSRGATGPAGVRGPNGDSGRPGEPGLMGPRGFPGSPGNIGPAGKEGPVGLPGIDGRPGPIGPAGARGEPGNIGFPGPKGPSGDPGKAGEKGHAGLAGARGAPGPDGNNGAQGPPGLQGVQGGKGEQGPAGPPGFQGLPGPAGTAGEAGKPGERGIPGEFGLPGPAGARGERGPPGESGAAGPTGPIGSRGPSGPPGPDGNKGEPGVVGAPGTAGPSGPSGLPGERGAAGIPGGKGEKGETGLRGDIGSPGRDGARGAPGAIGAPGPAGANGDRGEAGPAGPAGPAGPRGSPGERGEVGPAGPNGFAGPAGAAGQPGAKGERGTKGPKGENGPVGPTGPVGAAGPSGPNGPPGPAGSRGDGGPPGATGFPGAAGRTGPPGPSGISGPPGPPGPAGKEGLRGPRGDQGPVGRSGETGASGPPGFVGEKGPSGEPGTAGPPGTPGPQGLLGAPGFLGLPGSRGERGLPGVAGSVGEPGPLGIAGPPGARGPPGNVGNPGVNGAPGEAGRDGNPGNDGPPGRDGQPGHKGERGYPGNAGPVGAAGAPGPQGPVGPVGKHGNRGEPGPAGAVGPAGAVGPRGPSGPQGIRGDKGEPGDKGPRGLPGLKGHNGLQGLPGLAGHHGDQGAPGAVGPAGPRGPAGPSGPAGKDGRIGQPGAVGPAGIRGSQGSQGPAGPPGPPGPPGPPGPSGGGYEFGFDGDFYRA
compound,measurement,setting,value
N[C@@H](CCCCNC[C@H](O)[C@@H](O)[C@@H](O)[C@H](O)CO)C(=O)O [galactitollysine],Plasma 3-deoxyglucosone reduced,3-deoxyglucosone,50%
same,average reduction of urinary 3-deoxyglucosone,3-deoxyglucosone,35%
"NC(CCCCNCC(=O)C(O)C(O)C(O)CO)C(=O)O (stereo not drawn) [fructoselysine, 1-deoxy-1-(ε-aminolysine)-fructose]",Type IV collagen production,mouse mesangial cells; 5 mM fructoselysine with 10 mM glucose,"560 ng/10,000 cells"
same,Type IV collagen production,mouse mesangial cells; 10 mM fructoselysine with 10 mM glucose,"1100 ng/10,000 cells"
same,time of peak 3DF excretion in urine after the bolus,[1],about 4 hours
"CO[C@@H]([C@H](O)[C@H](O)CO)[C@@H](O)CNCCCC[C@H](N)C(=O)O [DYN 12, 3-O-methylsorbitollysine]",muscle strength measured while alert,diabetic rats,stronger muscle strength
same,% Reduction of plasma 3DG vs saline only,3DG; Diabetic rats,53%
same,plasma 3DG level,3DG; Diabetic rats,0.44 ± 0.10 µM
same,% Reduction of plasma 3DG vs saline only,3DG; Non-diabetic rats,43%
same,plasma 3DG level,3DG; Non-diabetic rats,0.13 ± 0.02 µM
same,amount of pressure needed to displace the skin,[2],3.2+/−1.2 kPA
same,nmols 3OMeSL in kidneys,"[3]; 13500 nmols injected intraperitoneally, sacrificed after 3 hours, one line per rat, listed as 3OMeSL",8155 nmols and 3880 nmols and 10071 nmols and 6582 nmols and 5373 nmols and 4833 nmols
same,Nmols 3OMeSL in urine,"[3]; 13500 nmols injected intraperitoneally, urine collected 3 hours, one line per rat (Rat # 2084-2089), listed as 3OMeSL",4200 nmols and 1355 nmols and 2940 nmols and 1675 nmols and 1778 nmols and 2360 nmols
same,presence in urine and plasma,[3]; 3 hours after ip injection,"The urine also contained 3-O-methyl sorbitollysine, but plasma did not"
same,tissue extracts found to contain the compound,"[3]; brain, heart, muscle, sciatic nerve, spleen, pancreas, liver, kidney examined 3 hours after ip injection",The only tissue extract found to contain 3-O-methyl sorbitollysine was that of the kidney
same,% 3OMeSL recovered (percentage of the injected dose recovered from urine and kidney),"[3]; urine plus kidneys, one line per rat, listed as 3OMeSL",91.5% and 38.8% and 96.4% and 61.2% and 53.0% and 53.3%
same,total 3OMeSL recovered,"[3]; urine plus kidneys, one line per rat, listed as 3OMeSL, in nmol",12355 and 5235 and 13011 and 8257 and 7151 and 7193
"N=C(N)NCCC[C@H](N)C(=O)O [arginine, reference compound]",inhibition of 3DG induced collagen crosslinking,[4]; 5 mM 3DG plus 10 mM arginine,fewer high molecular bands
"O=CC(=O)C[C@H](O)[C@H](O)CO [3DG, 3-deoxyglucosone]",collagen crosslinking (migration on SDS-PAGE),[4]; 5 mM 3DG,caused the collagen to migrate as if it had a higher molecular weight
N[C@@H](CCCCNC[C@H](O)[C@@H](O)[C@H](O)[C@H](O)CO)C(=O)O [sorbitollysine],Plasma 3-deoxyglucosone reduced,3-deoxyglucosone,40%
same,average reduction of urinary 3-deoxyglucosone,3-deoxyglucosone,50%
CNC[C@H](O)[C@@H](O)[C@H](O)[C@H](O)CO [meglumine],average 3-deoxyglucosone concentrations in the urine decreased,"3-deoxyglucosone; three rats, 100 μmols intraperitoneal, three hours after the injection",42%
N[C@@H](CCCCNC[C@@H](O)[C@@H](O)[C@H](O)[C@H](O)CO)C(=O)O [mannitollysine],Plasma 3-deoxyglucosone reduced,3-deoxyglucosone,58%
same,average reduction of urinary 3-deoxyglucosone,3-deoxyglucosone,35%
